Results as given in patent publication US8580832B2, “Substituted phenoxy aminothiazolones as estrogen related receptor-α modulators” (Janssen Pharmaceutica N.V., priority 2007, dated 2013).

Target: T1, ERR1 (also known as ERR-α or ERR-1) (Homo sapiens, UniProt P11474)
T1 construct: the ^6His-tagged-ERR1 LBD
T1 sequence (P11474 193-421 limits assumed): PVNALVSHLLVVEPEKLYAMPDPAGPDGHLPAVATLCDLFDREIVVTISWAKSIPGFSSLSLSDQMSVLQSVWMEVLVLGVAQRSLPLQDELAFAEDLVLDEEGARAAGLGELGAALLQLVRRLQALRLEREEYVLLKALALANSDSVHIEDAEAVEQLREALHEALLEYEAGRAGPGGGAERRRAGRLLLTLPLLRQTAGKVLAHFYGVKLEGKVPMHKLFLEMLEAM
Experiment: TR-FRET assay: disruption of co-activator peptide binding to ERR1 LBD
Type: biochemical
Settings: 6His-tagged ERR1 LBD 6 nM, GST-SRC-2 peptide 6 nM, 25° C., 4-18 hours; average of 3 independent experiments
Description: Time-Resolved Fluorescence Resonance Energy Transfer (TR-FRET) experiments were performed to examine the functional response of ERR1 (also known as ERR-α or ERR-1) ligands. The TR-FRET assay described herein relied on the conformation of ERR1 for binding to a co-activator peptide: when a test compound binds to ERR1 and alters its conformation, it can disrupt the binding of the co-activator peptide. The components of this homogeneous secondary assay included: the ^6His-tagged-ERR1 LBD, a GST-labeled-hSRC2 co-activator polypeptide and a fluorescent donor/acceptor pair from CIS bio international htrf/bioassays (Bedford, Mass.) using both an α-GST Europium Cryptate (Eu) label and an α^6His-XL665 (allophycocyanin) fluorophore.
For TR-FRET measurements, the reaction was buffered in 25 mM Tris pH 8, 2.5 mM Hepes, 20 mM KCl, 1 mM DTT, and 0.05 mg/mL BSA (-lipids). […] Reactions were allowed to reach equilibrium at 25° C. for 4-18 hours before collecting data on the Analyst from LJL Biosystems (Molecular Devices Sunnyvale, Calif.). […] Dose response curves were fitted using a hyperbolic equation and the data reported is the average of 3 independent experiments.

Row | SMILES | EC50 [nM]
1 | COc1cc(/C=C2\SC(NCCn3cccn3)=NC2=O)ccc1Oc1ccc(C#N)cc1C(F)(F)F [Example 30, 4-{2-Methoxy-4-[4-oxo-2-(2-pyrazol-1-yl-ethylamino)-4H-thiazol-5-ylidenemethyl]-phenoxy}-3-trifluoromethyl-benzonitrile] | 47
2 | COc1cc(/C=C2\SC(N3CCN(C(C)=O)CC3)=NC2=O)ccc1Oc1ccc(C#N)cc1C(F)(F)F [Example 31, 4-{4-[2-(4-Acetyl-piperazin-1-yl)-4-oxo-4H-thiazol-5-ylidenemethyl]-2-methoxy-phenoxy}-3-trifluoromethyl-benzonitrile] | 6
3 | COc1cc(/C=C2\SC(NCCO)=NC2=O)ccc1Oc1ccc(C#N)cc1C(F)(F)F [Example 32, 4-{4-[2-(2-Hydroxy-ethylamino)-4-oxo-4H-thiazol-5-ylidenemethyl]-2-methoxy-phenoxy}-3-trifluoromethyl-benzonitrile] | 21
4 | COc1cc(/C=C2\SC(NCCN3CCOCC3)=NC2=O)ccc1Oc1ccc(C#N)cc1C(F)(F)F [Example 33, 4-{2-Methoxy-4-[2-(2-morpholin-4-yl-ethylamino)-4-oxo-4H-thiazol-5-ylidenemethyl]-phenoxy}-3-trifluoromethyl-benzonitrile] | 15
5 | COc1cc(/C=C2\SC(NC[C@@H](O)CO)=NC2=O)ccc1Oc1ccc(C#N)cc1C(F)(F)F [Example 34, 4-{4-[2-(2R,3-Dihydroxy-propylamino)-4-oxo-4H-thiazol-5-ylidenemethyl]-2-methoxy-phenoxy}-3-trifluoromethyl-benzonitrile] | 19
6 | COc1cc(/C=C2\SC(NC[C@H](O)CO)=NC2=O)ccc1Oc1ccc(C#N)cc1C(F)(F)F [Example 35, 4-{4-[2-(2S,3-Dihydroxy-propylamino)-4-oxo-4H-thiazol-5-ylidenemethyl]-2-methoxy-phenoxy}-3-trifluoromethyl-benzonitrile] | 13
7 | COc1cc(/C=C2\SC(NCCN3CCCC3=O)=NC2=O)ccc1Oc1ccc(C#N)cc1C(F)(F)F [Example 36, 4-(2-Methoxy-4-{4-oxo-2-[2-(2-oxo-pyrrolidin-1-yl)-ethylamino]-4H-thiazol-5-ylidenemethyl}-phenoxy)-3-trifluoromethyl-benzonitrile] | 8
8 | COc1cc(/C=C2\SC(N(C)CCN)=NC2=O)ccc1Oc1ccc(C#N)cc1C(F)(F)F [Example 37, 4-(4-{2-[(2-Amino-ethyl)-methyl-amino]-4-oxo-4H-thiazol-5-ylidenemethyl}-2-methoxy-phenoxy)-3-trifluoromethyl-benzonitrile] | 100
9 | CCS(=O)(=O)N1CCN(C2=NC(=O)/C(=C/c3ccc(Oc4ccc(C#N)cc4C(F)(F)F)c(OC)c3)S2)CC1 [Example 38, 4-{4-[2-(4-Ethanesulfonyl-piperazin-1-yl)-4-oxo-4H-thiazol-5-ylidenemethyl]-2-methoxy-phenoxy}-3-trifluoromethyl-benzonitrile] | 9
10 | COc1cc(/C=C2\SC(N3CCC(O)C3)=NC2=O)ccc1Oc1ccc(C#N)cc1C(F)(F)F (stereo not shown) [Example 39, 4-{4-[2-(3-Hydroxy-pyrrolidin-1-yl)-4-oxo-4H-thiazol-5-ylidenemethyl]-2-methoxy-phenoxy}-3-trifluoromethyl-benzonitrile] | 9
11 | COc1cc(/C=C2\SC(N3CC(C)OC(C)C3)=NC2=O)ccc1Oc1ccc(C#N)cc1C(F)(F)F (stereo not shown) [Example 40, 4-{4-[2-(2,6-Dimethyl-morpholin-4-yl)-4-oxo-4H-thiazol-5-ylidenemethyl]-2-methoxy-phenoxy}-3-trifluoromethyl-benzonitrile] | 7
12 | N#Cc1ccc(Oc2ccc(/C=C3\SC(N(CCO)CCO)=NC3=O)cc2F)c(C(F)(F)F)c1 [Example 41, 4-(4-{2-[Bis-(2-hydroxy-ethyl)-amino]-4-oxo-4H-thiazol-5-ylidenemethyl}-2-fluoro-phenoxy)-3-trifluoromethyl-benzonitrile] | 18
13 | CN1CCN(C2=NC(=O)/C(=C/c3ccc(Oc4ccc(C#N)cc4C(F)(F)F)c(F)c3)S2)CC1=O [Example 43, 4-{2-Fluoro-4-[2-(4-methyl-3-oxo-piperazin-1-yl)-4-oxo-4H-thiazol-5-ylidenemethyl]-phenoxy}-3-trifluoromethyl-benzonitrile] | 22
14 | CCS(=O)(=O)N1CCN(C2=NC(=O)/C(=C/c3ccc(Oc4ccc(C#N)cc4C(F)(F)F)c(F)c3)S2)CC1 [Example 44, 4-{4-[2-(4-Ethanesulfonyl-piperazin-1-yl)-4-oxo-4H-thiazol-5-ylidenemethyl]-2-fluoro-phenoxy}-3-trifluoromethyl-benzonitrile] | 68
15 | N#Cc1ccc(Oc2ccc(/C=C3\SC(N4CCC(O)C4)=NC3=O)cc2F)c(C(F)(F)F)c1 (stereo not shown) [Example 45, 4-{2-Fluoro-4-[2-(3-hydroxy-pyrrolidin-1-yl)-4-oxo-4H-thiazol-5-ylidenemethyl]-phenoxy}-3-trifluoromethyl-benzonitrile] | 39
16 | CC1CN(C2=NC(=O)/C(=C/c3ccc(Oc4ccc(C#N)cc4C(F)(F)F)c(F)c3)S2)CC(C)O1 (stereo not shown) [Example 46, 4-{4-[2-(2,6-Dimethyl-morpholin-4-yl)-4-oxo-4H-thiazol-5-ylidenemethyl]-2-fluoro-phenoxy}-3-trifluoromethyl-benzonitrile] | 19
17 | N#Cc1ccc(Oc2ccc(/C=C3\SC(N4CCNC(=O)C4)=NC3=O)cc2F)c(C(F)(F)F)c1 [Example 47, 4-{2-Fluoro-4-[4-oxo-2-(3-oxo-piperazin-1-yl)-4H-thiazol-5-ylidenemethyl]-phenoxy}-3-trifluoromethyl-benzonitrile] | 19
18 | CN(C)CCCNC1=NC(=O)/C(=C/c2ccc(Oc3ccc(C#N)cc3C(F)(F)F)c(F)c2)S1 [Example 48, 4-{4-[2-(3-Dimethylamino-propylamino)-4-oxo-4H-thiazol-5-ylidenemethyl]-2-fluoro-phenoxy}-3-trifluoromethyl-benzonitrile] | 9
19 | N#Cc1ccc(Oc2ccc(/C=C3\SC(NCCCN4CCOCC4)=NC3=O)cc2F)c(C(F)(F)F)c1 [Example 49, 4-{2-Fluoro-4-[2-(3-morpholin-4-yl-propylamino)-4-oxo-4H-thiazol-5-ylidenemethyl]-phenoxy}-3-trifluoromethyl-benzonitrile] | 10
20 | CN(CC(O)CO)C1=NC(=O)/C(=C/c2ccc(Oc3ccc(C#N)cc3C(F)(F)F)c(F)c2)S1 (stereo not shown) [Example 50, 4-(4-{2-[(2,3-Dihydroxy-propyl)-methyl-amino]-4-oxo-4H-thiazol-5-ylidenemethyl}-2-fluoro-phenoxy)-3-trifluoromethyl-benzonitrile] | 12
21 | N#Cc1ccc(Oc2ccc(/C=C3\SC(NCCCN4CCCC4=O)=NC3=O)cc2F)c(C(F)(F)F)c1 [Example 51, 4-(2-Fluoro-4-{4-oxo-2-[3-(2-oxo-pyrrolidin-1-yl)-propylamino]-4H-thiazol-5-ylidenemethyl}-phenoxy)-3-trifluoromethyl-benzonitrile] | 29
22 | COC(=O)c1ccc(Oc2ccc(/C=C3\SC(N4CC(C(=O)O)C4)=NC3=O)cc2OC)c(C(F)(F)F)c1 [Example 52, 1-{5-[3-Methoxy-4-(4-methoxycarbonyl-2-trifluoromethyl-phenoxy)-benzylidene]-4-oxo-4,5-dihydro-thiazol-2-yl}-azetidine-3-carboxylic acid] | 2
